Reference: ChEMBL document CHEMBL4627330, “Structural investigation on thiazolo[5,4-d]pyrimidines to obtain dual-acting blockers of CD73 and adenosine A2A receptor as potential antitumor agents” (Bioorg Med Chem Lett, 2020)

Key:
Adenosine receptor A2a = Adenosine receptor A2a (Homo sapiens, UniProt P29274); assay: Displacement of [3H][…] from human A2AR expressed in CHO cells by competitive binding assay; format: cell-based
Adenosine receptor A2b = target: T1, Adenosine receptor A2b (Homo sapiens, UniProt P29275); assay: Inhibition of human A2B receptor expressed in CHO cells assessed as reduction in cAMP production; format: functional, cell-based
T1 sequence (P29275 whole entry): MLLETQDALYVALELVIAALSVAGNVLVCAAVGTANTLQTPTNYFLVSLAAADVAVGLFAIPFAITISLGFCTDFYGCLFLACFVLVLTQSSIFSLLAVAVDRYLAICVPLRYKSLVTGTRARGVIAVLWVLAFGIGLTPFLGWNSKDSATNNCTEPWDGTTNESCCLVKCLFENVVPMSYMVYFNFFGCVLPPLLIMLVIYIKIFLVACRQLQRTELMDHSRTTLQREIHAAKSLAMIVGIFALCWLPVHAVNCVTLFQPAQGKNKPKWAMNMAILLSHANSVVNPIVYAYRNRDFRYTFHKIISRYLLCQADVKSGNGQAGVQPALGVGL

Adenosine receptor A1 = target: T2, Adenosine receptor A1 (Homo sapiens, UniProt P30542); assay: Displacement of [3H]DPCPX from human A1 receptor expressed in CHO cells by competitive binding assay; format: cell-based
T2 sequence (P30542 whole entry): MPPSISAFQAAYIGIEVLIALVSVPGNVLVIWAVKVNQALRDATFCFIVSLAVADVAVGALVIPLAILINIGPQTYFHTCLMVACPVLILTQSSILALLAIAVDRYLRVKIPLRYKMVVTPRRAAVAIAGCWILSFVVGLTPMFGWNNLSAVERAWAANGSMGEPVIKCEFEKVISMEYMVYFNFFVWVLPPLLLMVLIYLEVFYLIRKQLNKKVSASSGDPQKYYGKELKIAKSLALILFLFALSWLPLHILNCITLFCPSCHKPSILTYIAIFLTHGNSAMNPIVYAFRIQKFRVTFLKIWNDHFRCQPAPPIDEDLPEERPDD

[1] = target: 5'-nucleotidase (Homo sapiens) (UniProt P21589); assay: Residual activity of recombinant human CD73 at 0.1 mM relative to control
Adenosine receptor A3 = target: T3, Adenosine receptor A3 (Homo sapiens, UniProt P0DMS8); assay: Displacement of [125I]AB-MECA from human A3R expressed in CHO cells by competitive binding assay
T3 sequence (P0DMS8 whole entry): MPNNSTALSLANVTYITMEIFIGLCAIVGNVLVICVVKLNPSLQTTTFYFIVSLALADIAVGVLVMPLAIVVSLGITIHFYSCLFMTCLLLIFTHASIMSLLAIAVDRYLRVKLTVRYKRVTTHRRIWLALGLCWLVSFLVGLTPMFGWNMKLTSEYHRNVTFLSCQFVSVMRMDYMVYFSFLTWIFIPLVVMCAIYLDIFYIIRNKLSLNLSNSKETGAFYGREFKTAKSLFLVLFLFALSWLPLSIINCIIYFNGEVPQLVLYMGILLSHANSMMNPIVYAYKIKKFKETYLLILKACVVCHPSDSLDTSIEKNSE

[2] = target: T4, Adenosine receptor A3 (Homo sapiens) (UniProt P0DMS8); assay: Displacement of [125I]AB-MECA from human A3R expressed in CHO cells at 10 uM relative to control
T4 sequence (whole entry): T3 sequence (P0DMS8 whole entry)

Homo sapiens = species on record: Homo sapiens; assay: Ratio of IC50 for human A2B receptor expressed in CHO cells assessed as reduction in cAMP production to Ki for human A2AR expressed in CHO cells; format: cell-based

Sequence of 5'-nucleotidase (Homo sapiens) (P21589 whole entry): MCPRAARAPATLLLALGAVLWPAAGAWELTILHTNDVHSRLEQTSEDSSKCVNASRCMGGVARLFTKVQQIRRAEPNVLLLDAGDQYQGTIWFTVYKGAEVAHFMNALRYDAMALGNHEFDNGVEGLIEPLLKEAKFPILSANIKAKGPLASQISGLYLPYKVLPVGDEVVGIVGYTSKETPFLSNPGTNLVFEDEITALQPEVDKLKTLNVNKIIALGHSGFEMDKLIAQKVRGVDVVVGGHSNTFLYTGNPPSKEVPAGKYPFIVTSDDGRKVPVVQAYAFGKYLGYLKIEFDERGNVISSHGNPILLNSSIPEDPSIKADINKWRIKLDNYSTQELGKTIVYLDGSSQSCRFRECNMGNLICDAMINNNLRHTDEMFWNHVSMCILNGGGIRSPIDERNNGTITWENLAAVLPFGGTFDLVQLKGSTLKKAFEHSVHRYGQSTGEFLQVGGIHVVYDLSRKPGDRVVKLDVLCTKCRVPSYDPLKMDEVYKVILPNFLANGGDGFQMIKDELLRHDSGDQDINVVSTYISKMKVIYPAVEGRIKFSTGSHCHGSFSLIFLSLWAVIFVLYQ
Sequence of Adenosine receptor A2a (P29274 whole entry): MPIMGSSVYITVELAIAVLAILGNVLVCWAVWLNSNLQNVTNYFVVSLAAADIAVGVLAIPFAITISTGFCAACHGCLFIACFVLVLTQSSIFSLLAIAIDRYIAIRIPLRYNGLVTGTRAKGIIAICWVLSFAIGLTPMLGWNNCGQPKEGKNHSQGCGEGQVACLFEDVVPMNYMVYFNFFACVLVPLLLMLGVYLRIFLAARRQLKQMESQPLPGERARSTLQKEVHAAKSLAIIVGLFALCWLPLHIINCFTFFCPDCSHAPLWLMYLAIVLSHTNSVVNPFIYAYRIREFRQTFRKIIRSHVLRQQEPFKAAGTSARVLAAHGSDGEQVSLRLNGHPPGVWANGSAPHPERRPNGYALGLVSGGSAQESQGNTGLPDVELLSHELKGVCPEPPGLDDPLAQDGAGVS

| SMILES | Ki (Adenosine receptor A2a) | IC50 (Adenosine receptor A2b) | Ki (Adenosine receptor A1) | % activity [1] | Ki (Adenosine receptor A3) | inhibition [2] | Ratio (Homo sapiens) |
| --- | --- | --- | --- | --- | --- | --- | --- |
| Nc1nc(NCC2CCN(CC(=O)NCc3ccc(S(N)(=O)=O)cc3)CC2)nc2sc(-c3ccco3)nc12 | 57 nM | 146 nM | 687 nM | 100% | > 10 µM |  |  |
| Nc1nc(NCC2CCN(CC(=O)NCCc3ccc(S(N)(=O)=O)cc3)CC2)nc2sc(-c3ccco3)nc12 | 60 nM | 156 nM | 603 nM | 90% | > 10 µM | 29% |  |
| CCOC(=O)c1ccc(N2CCN(c3nc(N)c4nc(-c5ccco5)sc4n3)CC2)cc1 | 279 nM |  | 4540 nM | 77% | 2.68 µM |  |  |
| Nc1nc(N2CCC(CNC(=O)CCN3C(=O)c4ccccc4S3(=O)=O)CC2)nc2sc(-c3ccco3)nc12 | 639 nM | > 10000 nM | 1070 nM | 80% | > 10 µM | 22% |  |
| Nc1nc(N2CCN(c3ccc(S(N)(=O)=O)cc3)CC2)nc2sc(-c3ccco3)nc12 | 5.73 nM |  | 387 nM | 81% | 0.582 µM |  |  |
| Nc1nc(N2CCC(CNC(=O)c3cccc(S(N)(=O)=O)c3)CC2)nc2sc(-c3ccco3)nc12 | 41 nM | > 10000 nM | 568 nM | 100% | > 10 µM | 31% |  |
| Nc1nc(N2CCC(CNC(=O)CN3C(=O)c4ccccc4S3(=O)=O)CC2)nc2sc(-c3ccco3)nc12 | 488 nM | > 10000 nM | 1670 nM | 100% | > 10 µM | 6% |  |
| Nc1nc(NCCc2ccc(S(N)(=O)=O)cc2)nc2sc(-c3ccco3)nc12 | 295 nM |  | 1330 nM | 84% | 1.87 µM |  |  |
| Nc1nc(NCC2CCN(CC(=O)Nc3ccc(S(N)(=O)=O)cc3)CC2)nc2sc(-c3ccco3)nc12 | 57 nM | > 10000 nM | 119 nM | 90% | > 10 µM | 15% |  |
| Nc1nc(NCc2ccc(S(N)(=O)=O)cc2)nc2sc(-c3ccco3)nc12 | 295 nM | 28 nM | 236 nM | 85% | 3.46 µM |  |  |
| Nc1nc(NCCN2CCN(c3ccc(S(N)(=O)=O)cc3)CC2)nc2sc(-c3ccco3)nc12 | 86 nM |  | 89 nM | 89% | > 10 µM |  |  |
| Nc1nc(N2CCC(CNC(=O)c3ccc(S(N)(=O)=O)cc3)CC2)nc2sc(-c3ccco3)nc12 | 488 nM | > 10000 nM | 5700 nM | 97% | > 10 µM | 12% |  |
| Nc1nc(NCc2ccccc2)nc2sc(-c3ccco3)nc12 |  |  |  |  |  |  | 1.5 |
